Laboratory results reported in ChEMBL document CHEMBL3832069, “DailyMed|setid=b463cd5f-299a-45f8-a1b3-c9e7fe271955 | INDOMETHACIN- indomethacin capsule|PD-Rx Pharmaceuticals, Inc”.

Legend:
Assay type in all cases: ADME, organism-based
[1] = (§1) Pharmacokinetic parameters for Indomethacin evaluated after single oral administration of 25 or 50 mg Indomethacin capsules.; parameters: dose 25 mg, dose 50 mg, route oral; conditions: human, in vivo, dosed compound id 57, dosed compound name INDOMETHACIN, regimen Single dose, tissue Plasma
Homo sapiens = experiment: as §1; parameters: dose 25 mg, dose 50 mg, route oral; conditions: in vivo, po, dosed compound id 57, dosed compound name INDOMETHACIN, regimen Single dose, tissue Plasma
[2] = Pharmacokinetic parameters for Indomethacin evaluated after oral administration of Indomethacin capsules.; conditions: human, in vivo, dosed compound id 57, dosed compound name INDOMETHACIN, tissue Plasma

Cmax ([1]; po): 1000 ng/mL
Tmax ([1]; dose 25 mg, route oral): 2 h
Cmax (Homo sapiens): 2000 ng/mL
bioavailability [2]: 100%
half-life [2]: 4.5 h
fraction unbound ([2]; read-out: Protein binding): 0.01
SMILES: COc1ccc2c(c1)c(CC(=O)O)c(C)n2C(=O)c1ccc(Cl)cc1 [INDOMETHACIN]
